Laboratory results taken from ChEMBL document CHEMBL3627644, “2-Arylquinazolin-4(3H)-ones: A new class of α-glucosidase inhibitors” (Bioorg Med Chem, 2015).
pIC50, pKi: −log10 of the molar value.

Assays:
[1] = Inhibition of Saccharomyces cerevisiae alpha-glucosidase for 15 mins by multiplate reader method using 0.7 mM p-nitrophenyl-alpha-D-glucopyranoside as substrate; conditions: for pIC50: read-out: IC50
[2] = Competitive inhibition of Saccharomyces cerevisiae alpha-glucosidase by multiplate reader method using p-nitrophenyl-alpha-D-glucopyranoside as substrate
[3] = Mixed inhibition of Saccharomyces cerevisiae alpha-glucosidase by multiplate reader method using p-nitrophenyl-alpha-D-glucopyranoside as substrate
[4] = Non-Competitive inhibition of Saccharomyces cerevisiae alpha-glucosidase by multiplate reader method using p-nitrophenyl-alpha-D-glucopyranoside as substrate

Structure (SMILES)	pIC50 [1]	further results
CCOc1ccc(-c2nc3ccccc3c(=O)[nH]2)cc1	5.49	
O=c1[nH]c(-c2ccc([N+](=O)[O-])cc2)nc2ccccc12	4.70	IC50 [1]: Not Active
O=c1[nH]c(-c2cccc(O)c2)nc2ccccc12		IC50 [1]: Not Active
O=c1[nH]c(-c2cc(Cl)ccc2Cl)nc2ccccc12	4.79	
C[C@H]1O[C@H](O[C@H]2[C@H](O)[C@@H](O)[C@@H](O[C@H]3[C@H](O)[C@@H](O)C(O)O[C@@H]3CO)O[C@@H]2CO)[C@H](O)[C@@H](O)[C@@H]1N[C@H]1C=C(CO)[C@@H](O)[C@H](O)[C@H]1O (stereo partly drawn) [ACARBOSE]		pKi [2]: 3.13
CN(C)c1ccc(-c2nc(O)c3ccccc3n2)cc1	5.56	
O=c1[nH]c(-c2cccc([N+](=O)[O-])c2)nc2ccccc12	4.74	
O=c1[nH]c(-c2ccccc2O)nc2ccccc12	4.98	
Cc1ccc(-c2nc3ccccc3c(=O)[nH]2)cc1	4.12	
O=c1[nH]c(-c2cc(O)ccc2O)nc2ccccc12	5.63	
O=c1[nH]c(-c2ccc(O)cc2)nc2ccccc12	4.98	
COc1ccc(-c2nc(O)c3ccccc3n2)cc1OC	6.07	pKi [2]: 6.55
COc1cccc(-c2nc3ccccc3c(=O)[nH]2)c1O	4.83	

Now from value to compound, other results behind:

pIC50 [1]	Structure (SMILES)	further results
5.89	O=c1[nH]c(-c2ccccc2Cl)nc2ccccc12	
5.01	O=c1[nH]c(-c2c(O)cccc2Br)nc2ccccc12	
6.52	CCOc1cc(-c2nc3ccccc3c(=O)[nH]2)ccc1O	pKi [2]: 6.37
5.72	COc1ccc(-c2nc3ccccc3c(=O)[nH]2)cc1O	
5.94	COc1ccc(O)c(-c2nc3ccccc3c(=O)[nH]2)c1	
5.82	O=c1[nH]c(-c2ccc(O)c(O)c2)nc2ccccc12	
4.17	O=c1[nH]c(-c2c(Cl)cccc2Cl)nc2ccccc12	
6.24	CCOc1ccccc1-c1nc2ccccc2c(=O)[nH]1	pKi [3]: 5.18
6.40	COc1ccc(-c2nc(O)c3ccccc3n2)cc1	pKi [4]: 6.60
3.93	COc1cc(-c2nc3ccccc3c(=O)[nH]2)cc(OC)c1OC	
